According to PMC12577588 (2025):

Tested on: telo24 DNA (DNA, G4) TTAGGGTTAGGGTTAGGGTTAGGG
Test: UV-vis titration
Conditions: K+ 100 mM; 10 mM HEPES pH 7.4, 1 mM Na2EDTA; 5 μM porphyrin; error is SE

- Kd: 0.93 (0.18) μM
Structure (SMILES): C[n+]1ccc(-c2c3nc(c(-c4cc[n+](C)cc4)c4ccc([nH]4)c(-c4cc[n+](C)cc4)c4nc(c(-c5cc[n+](C)cc5)c5ccc2[nH]5)C=C4)C=C3)cc1
